# pIC50: −log10 of the molar value.
# Target: human NaV1.5 (Homo sapiens, UniProt Q14524)
# Test: IonWorks Quattro (IWQ) electrophysiology, human NaV1.5
# Assay type: cell-based
# Details: human; read-out: Ala mutant IWQ IC50 NaV1.5
# Sequence of human NaV1.5 (Q14524 whole entry): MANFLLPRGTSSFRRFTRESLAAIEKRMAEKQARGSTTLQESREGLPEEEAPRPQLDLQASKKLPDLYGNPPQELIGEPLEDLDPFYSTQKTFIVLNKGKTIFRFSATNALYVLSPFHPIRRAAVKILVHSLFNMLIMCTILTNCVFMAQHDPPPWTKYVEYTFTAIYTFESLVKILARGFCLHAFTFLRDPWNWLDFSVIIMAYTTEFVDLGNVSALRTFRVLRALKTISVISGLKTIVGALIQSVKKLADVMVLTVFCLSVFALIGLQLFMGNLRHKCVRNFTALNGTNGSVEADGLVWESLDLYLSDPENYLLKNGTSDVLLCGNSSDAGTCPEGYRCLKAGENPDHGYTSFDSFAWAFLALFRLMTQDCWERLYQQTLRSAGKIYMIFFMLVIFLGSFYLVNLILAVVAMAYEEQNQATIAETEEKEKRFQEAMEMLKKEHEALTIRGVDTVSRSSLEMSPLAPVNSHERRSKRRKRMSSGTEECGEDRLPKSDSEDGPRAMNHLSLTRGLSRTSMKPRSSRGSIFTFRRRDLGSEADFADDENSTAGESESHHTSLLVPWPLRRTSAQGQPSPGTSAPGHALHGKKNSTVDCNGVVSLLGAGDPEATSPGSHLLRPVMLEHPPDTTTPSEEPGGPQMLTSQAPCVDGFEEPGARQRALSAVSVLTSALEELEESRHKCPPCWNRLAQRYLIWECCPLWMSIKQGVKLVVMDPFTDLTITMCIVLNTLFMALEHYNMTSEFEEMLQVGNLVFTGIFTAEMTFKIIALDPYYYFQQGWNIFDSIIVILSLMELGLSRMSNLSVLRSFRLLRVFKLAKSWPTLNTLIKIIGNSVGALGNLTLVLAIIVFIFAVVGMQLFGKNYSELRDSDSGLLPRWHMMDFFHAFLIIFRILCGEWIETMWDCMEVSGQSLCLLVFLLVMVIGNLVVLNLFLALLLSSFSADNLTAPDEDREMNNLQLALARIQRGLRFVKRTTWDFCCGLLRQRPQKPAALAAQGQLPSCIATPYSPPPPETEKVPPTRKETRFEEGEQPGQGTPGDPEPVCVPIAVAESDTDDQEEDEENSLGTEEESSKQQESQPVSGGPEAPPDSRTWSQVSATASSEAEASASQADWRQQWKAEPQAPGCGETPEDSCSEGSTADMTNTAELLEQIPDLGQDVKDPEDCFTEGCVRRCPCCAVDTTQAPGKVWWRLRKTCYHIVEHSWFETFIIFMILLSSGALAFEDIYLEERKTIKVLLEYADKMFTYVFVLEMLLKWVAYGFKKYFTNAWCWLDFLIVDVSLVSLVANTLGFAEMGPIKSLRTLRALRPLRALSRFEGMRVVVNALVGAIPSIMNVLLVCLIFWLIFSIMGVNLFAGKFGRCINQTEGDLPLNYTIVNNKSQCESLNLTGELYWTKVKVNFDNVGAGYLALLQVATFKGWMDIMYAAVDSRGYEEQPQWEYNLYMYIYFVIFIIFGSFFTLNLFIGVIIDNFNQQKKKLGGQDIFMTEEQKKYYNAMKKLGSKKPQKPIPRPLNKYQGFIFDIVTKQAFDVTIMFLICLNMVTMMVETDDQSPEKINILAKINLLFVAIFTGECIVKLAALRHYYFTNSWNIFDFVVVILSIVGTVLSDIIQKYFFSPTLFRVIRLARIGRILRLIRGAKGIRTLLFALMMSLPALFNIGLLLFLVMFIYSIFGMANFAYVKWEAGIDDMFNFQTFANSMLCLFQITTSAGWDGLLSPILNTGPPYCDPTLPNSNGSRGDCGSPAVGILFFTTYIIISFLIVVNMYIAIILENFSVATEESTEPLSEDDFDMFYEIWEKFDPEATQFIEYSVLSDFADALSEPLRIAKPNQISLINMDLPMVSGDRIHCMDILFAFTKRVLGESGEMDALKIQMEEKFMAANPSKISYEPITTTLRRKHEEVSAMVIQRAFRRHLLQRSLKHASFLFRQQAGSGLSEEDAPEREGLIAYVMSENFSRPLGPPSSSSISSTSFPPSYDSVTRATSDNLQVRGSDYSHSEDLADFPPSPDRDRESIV
row,Compound,pIC50
1,CC[C@H](C)[C@H](NC(=O)[C@H](C)NC(=O)[C@H](CCCCN)NC(=O)[C@H](CCCNC(=N)N)NC(=O)[C@@H]1CSSC[C@@H]2NC(=O)[C@H](C)NC(=O)[C@H](CCCNC(=N)N)NC(=O)[C@H](CCCCN)NC(=O)[C@H](CO)NC(=O)[C@H](CC(=O)O)NC(=O)[C@@H]3CSSC[C@H](NC(=O)[C@H](CCCNC(=N)N)NC(=O)[C@H](CC(C)C)NC(=O)CNC(=O)[C@H](CCC(=O)O)NC(=O)[C@H](CSSC[C@H](NC(=O)[C@@H](N)Cc4ccc(O)cc4)C(=O)N[C@@H](CCC(N)=O)C(=O)N[C@@H](CCCCN)C(=O)N[C@@H](Cc4c[nH]c5ccccc45)C(=O)N[C@@H](CCSC)C(=O)N[C@@H](Cc4c[nH]c5ccccc45)C(=O)N[C@@H]([C@@H](C)O)C(=O)N3)NC2=O)C(=O)N[C@@H](CCCCN)C(=O)N[C@@H](CC(C)C)C(=O)N[C@@H](Cc2c[nH]c3ccccc23)C(=O)N1)C(N)=O [I28 Ala mutant],< 5.30
2,CC[C@H](C)[C@H](NC(=O)[C@H](CCCCN)NC(=O)[C@H](CCCNC(=N)N)NC(=O)[C@@H]1CSSC[C@@H]2NC(=O)[C@H](C)NC(=O)[C@H](CCCNC(=N)N)NC(=O)[C@H](CCCCN)NC(=O)[C@H](CO)NC(=O)[C@H](CC(=O)O)NC(=O)[C@@H]3CSSC[C@H](NC(=O)[C@H](CCCNC(=N)N)NC(=O)[C@H](CC(C)C)NC(=O)CNC(=O)[C@H](CCC(=O)O)NC(=O)[C@H](CSSC[C@H](NC(=O)[C@@H](N)Cc4ccc(O)cc4)C(=O)N[C@@H](CCC(N)=O)C(=O)N[C@@H](CCCCN)C(=O)N[C@@H](Cc4c[nH]c5ccccc45)C(=O)N[C@@H](CCSC)C(=O)N[C@@H](Cc4c[nH]c5ccccc45)C(=O)N[C@@H]([C@@H](C)O)C(=O)N3)NC2=O)C(=O)N[C@@H](CCCCN)C(=O)N[C@@H](CC(C)C)C(=O)N[C@@H](Cc2c[nH]c3ccccc23)C(=O)N1)C(=O)N[C@@H](C)C(N)=O [I29 Ala mutant],< 5.30
3,CC[C@H](C)[C@H](NC(=O)[C@@H](NC(=O)[C@H](CCCCN)NC(=O)[C@H](CCCNC(=N)N)NC(=O)[C@@H]1CSSC[C@@H]2NC(=O)[C@H](C)NC(=O)[C@H](CCCNC(=N)N)NC(=O)[C@H](C)NC(=O)[C@H](CO)NC(=O)[C@H](CC(=O)O)NC(=O)[C@@H]3CSSC[C@H](NC(=O)[C@H](CCCNC(=N)N)NC(=O)[C@H](CC(C)C)NC(=O)CNC(=O)[C@H](CCC(=O)O)NC(=O)[C@H](CSSC[C@H](NC(=O)[C@@H](N)Cc4ccc(O)cc4)C(=O)N[C@@H](CCC(N)=O)C(=O)N[C@@H](CCCCN)C(=O)N[C@@H](Cc4c[nH]c5ccccc45)C(=O)N[C@@H](CCSC)C(=O)N[C@@H](Cc4c[nH]c5ccccc45)C(=O)N[C@@H]([C@@H](C)O)C(=O)N3)NC2=O)C(=O)N[C@@H](CCCCN)C(=O)N[C@@H](CC(C)C)C(=O)N[C@@H](Cc2c[nH]c3ccccc23)C(=O)N1)[C@@H](C)CC)C(N)=O [K12 Ala mutant],< 5.30
4,CC[C@H](C)[C@H](NC(=O)[C@@H](NC(=O)[C@H](CCCCN)NC(=O)[C@H](CCCNC(=N)N)NC(=O)[C@@H]1CSSC[C@@H]2NC(=O)[C@H](C)NC(=O)[C@H](CCCNC(=N)N)NC(=O)[C@H](CCCCN)NC(=O)[C@H](CO)NC(=O)[C@H](CC(=O)O)NC(=O)[C@@H]3CSSC[C@H](NC(=O)[C@H](CCCNC(=N)N)NC(=O)[C@H](CC(C)C)NC(=O)CNC(=O)[C@H](CCC(=O)O)NC(=O)[C@H](CSSC[C@H](NC(=O)[C@@H](N)Cc4ccc(O)cc4)C(=O)N[C@@H](CCC(N)=O)C(=O)N[C@@H](CCCCN)C(=O)N[C@@H](Cc4c[nH]c5ccccc45)C(=O)N[C@@H](CCSC)C(=O)N[C@@H](Cc4c[nH]c5ccccc45)C(=O)N[C@@H]([C@@H](C)O)C(=O)N3)NC2=O)C(=O)N[C@@H](C)C(=O)N[C@@H](CC(C)C)C(=O)N[C@@H](Cc2c[nH]c3ccccc23)C(=O)N1)[C@@H](C)CC)C(N)=O [K22 Ala mutant],< 5.30
5,CC[C@H](C)[C@H](NC(=O)[C@@H](NC(=O)[C@H](CCCCN)NC(=O)[C@H](CCCNC(=N)N)NC(=O)[C@@H]1CSSC[C@@H]2NC(=O)[C@H](C)NC(=O)[C@H](CCCNC(=N)N)NC(=O)[C@H](CCCCN)NC(=O)[C@H](CO)NC(=O)[C@H](CC(=O)O)NC(=O)[C@@H]3CSSC[C@H](NC(=O)[C@H](CCCNC(=N)N)NC(=O)[C@H](CC(C)C)NC(=O)CNC(=O)[C@H](CCC(=O)O)NC(=O)[C@H](CSSC[C@H](NC(=O)[C@@H](N)Cc4ccc(O)cc4)C(=O)N[C@@H](CCC(N)=O)C(=O)N[C@@H](CCCCN)C(=O)N[C@@H](Cc4c[nH]c5ccccc45)C(=O)N[C@@H](CCSC)C(=O)N[C@@H](Cc4c[nH]c5ccccc45)C(=O)N[C@@H]([C@@H](C)O)C(=O)N3)NC2=O)C(=O)N[C@@H](CCCCN)C(=O)N[C@@H](C)C(=O)N[C@@H](Cc2c[nH]c3ccccc23)C(=O)N1)[C@@H](C)CC)C(N)=O [L23 Ala mutant],< 5.30
6,CC[C@H](C)[C@H](NC(=O)[C@@H](NC(=O)[C@H](CCCCN)NC(=O)[C@H](CCCNC(=N)N)NC(=O)[C@@H]1CSSC[C@@H]2NC(=O)[C@H](C)NC(=O)[C@H](CCCNC(=N)N)NC(=O)[C@H](CCCCN)NC(=O)[C@H](CO)NC(=O)[C@H](CC(=O)O)NC(=O)[C@@H]3CSSC[C@H](NC(=O)[C@H](CCCNC(=N)N)NC(=O)[C@H](CC(C)C)NC(=O)CNC(=O)[C@H](CCC(=O)O)NC(=O)[C@H](CSSC[C@H](NC(=O)[C@@H](N)Cc4ccc(O)cc4)C(=O)N[C@@H](CCC(N)=O)C(=O)N[C@@H](CCCCN)C(=O)N[C@@H](Cc4c[nH]c5ccccc45)C(=O)N[C@@H](C)C(=O)N[C@@H](Cc4c[nH]c5ccccc45)C(=O)N[C@@H]([C@@H](C)O)C(=O)N3)NC2=O)C(=O)N[C@@H](CCCCN)C(=O)N[C@@H](CC(C)C)C(=O)N[C@@H](Cc2c[nH]c3ccccc23)C(=O)N1)[C@@H](C)CC)C(N)=O [M6 Ala mutant],< 5.30
7,CC[C@H](C)[C@H](NC(=O)[C@@H](NC(=O)[C@H](CCCCN)NC(=O)[C@H](CCCNC(=N)N)NC(=O)[C@@H]1CSSC[C@@H]2NC(=O)[C@H](C)NC(=O)[C@H](C)NC(=O)[C@H](CCCCN)NC(=O)[C@H](CO)NC(=O)[C@H](CC(=O)O)NC(=O)[C@@H]3CSSC[C@H](NC(=O)[C@H](CCCNC(=N)N)NC(=O)[C@H](CC(C)C)NC(=O)CNC(=O)[C@H](CCC(=O)O)NC(=O)[C@H](CSSC[C@H](NC(=O)[C@@H](N)Cc4ccc(O)cc4)C(=O)N[C@@H](CCC(N)=O)C(=O)N[C@@H](CCCCN)C(=O)N[C@@H](Cc4c[nH]c5ccccc45)C(=O)N[C@@H](CCSC)C(=O)N[C@@H](Cc4c[nH]c5ccccc45)C(=O)N[C@@H]([C@@H](C)O)C(=O)N3)NC2=O)C(=O)N[C@@H](CCCCN)C(=O)N[C@@H](CC(C)C)C(=O)N[C@@H](Cc2c[nH]c3ccccc23)C(=O)N1)[C@@H](C)CC)C(N)=O [R13 Ala mutant],< 5.30

# Same assay, conditions: human; read-out: Glu mutant IWQ IC50 NaV1.5
row,Compound,pIC50
1,CC[C@H](C)[C@H](NC(=O)[C@@H](NC(=O)[C@H](CCCCN)NC(=O)[C@H](CCCNC(=N)N)NC(=O)[C@@H]1CSSC[C@@H]2NC(=O)[C@H](CCC(=O)O)NC(=O)[C@H](CCCNC(=N)N)NC(=O)[C@H](CCCCN)NC(=O)[C@H](CO)NC(=O)[C@H](CC(=O)O)NC(=O)[C@@H]3CSSC[C@H](NC(=O)[C@H](CCCNC(=N)N)NC(=O)[C@H](CC(C)C)NC(=O)CNC(=O)[C@H](CCC(=O)O)NC(=O)[C@H](CSSC[C@H](NC(=O)[C@@H](N)Cc4ccc(O)cc4)C(=O)N[C@@H](CCC(N)=O)C(=O)N[C@@H](CCCCN)C(=O)N[C@@H](Cc4c[nH]c5ccccc45)C(=O)N[C@@H](CCSC)C(=O)N[C@@H](Cc4c[nH]c5ccccc45)C(=O)N[C@@H]([C@@H](C)O)C(=O)N3)NC2=O)C(=O)N[C@@H](CCCCN)C(=O)N[C@@H](CC(C)C)C(=O)N[C@@H](Cc2c[nH]c3ccccc23)C(=O)N1)[C@@H](C)CC)C(N)=O [A14 Glu mutant],< 5.30
2,CC[C@H](C)[C@H](NC(=O)[C@H](CCCCN)NC(=O)[C@H](CCCNC(=N)N)NC(=O)[C@@H]1CSSC[C@@H]2NC(=O)[C@H](C)NC(=O)[C@H](CCCNC(=N)N)NC(=O)[C@H](CCCCN)NC(=O)[C@H](CO)NC(=O)[C@H](CC(=O)O)NC(=O)[C@@H]3CSSC[C@H](NC(=O)[C@H](CCCNC(=N)N)NC(=O)[C@H](CC(C)C)NC(=O)CNC(=O)[C@H](CCC(=O)O)NC(=O)[C@H](CSSC[C@H](NC(=O)[C@@H](N)Cc4ccc(O)cc4)C(=O)N[C@@H](CCC(N)=O)C(=O)N[C@@H](CCCCN)C(=O)N[C@@H](Cc4c[nH]c5ccccc45)C(=O)N[C@@H](CCSC)C(=O)N[C@@H](Cc4c[nH]c5ccccc45)C(=O)N[C@@H]([C@@H](C)O)C(=O)N3)NC2=O)C(=O)N[C@@H](CCCCN)C(=O)N[C@@H](CC(C)C)C(=O)N[C@@H](Cc2c[nH]c3ccccc23)C(=O)N1)C(=O)N[C@@H](CCC(=O)O)C(N)=O [I29 Glu mutant],< 5.30
3,CC[C@H](C)[C@H](NC(=O)[C@@H](NC(=O)[C@H](CCCCN)NC(=O)[C@H](CCCNC(=N)N)NC(=O)[C@@H]1CSSC[C@@H]2NC(=O)[C@H](C)NC(=O)[C@H](CCCNC(=N)N)NC(=O)[C@H](CCCCN)NC(=O)[C@H](CO)NC(=O)[C@H](CC(=O)O)NC(=O)[C@@H]3CSSC[C@H](NC(=O)[C@H](CCCNC(=N)N)NC(=O)[C@H](CC(C)C)NC(=O)CNC(=O)[C@H](CCC(=O)O)NC(=O)[C@H](CSSC[C@H](NC(=O)[C@@H](N)Cc4ccc(O)cc4)C(=O)N[C@@H](CCC(N)=O)C(=O)N[C@@H](CCCCN)C(=O)N[C@@H](Cc4c[nH]c5ccccc45)C(=O)N[C@@H](CCSC)C(=O)N[C@@H](Cc4c[nH]c5ccccc45)C(=O)N[C@@H]([C@@H](C)O)C(=O)N3)NC2=O)C(=O)N[C@@H](CCCCN)C(=O)N[C@@H](CCC(=O)O)C(=O)N[C@@H](Cc2c[nH]c3ccccc23)C(=O)N1)[C@@H](C)CC)C(N)=O [L23 Glu mutant],< 5.30

# Same assay, conditions: read-out: Ala mutant IWQ IC50 NaV1.5
row,Compound,pIC50
1,CC[C@H](C)[C@H](NC(=O)[C@@H](NC(=O)[C@H](CCCCN)NC(=O)[C@H](CCCNC(=N)N)NC(=O)[C@@H]1CSSC[C@@H]2NC(=O)[C@H](C)NC(=O)[C@H](CCCNC(=N)N)NC(=O)[C@H](CCCCN)NC(=O)[C@H](CO)NC(=O)[C@H](CC(=O)O)NC(=O)[C@@H]3CSSC[C@H](NC(=O)[C@H](CCCNC(=N)N)NC(=O)[C@H](CC(C)C)NC(=O)CNC(=O)[C@H](C)NC(=O)[C@H](CSSC[C@H](NC(=O)[C@@H](N)Cc4ccc(O)cc4)C(=O)N[C@@H](CCC(N)=O)C(=O)N[C@@H](CCCCN)C(=O)N[C@@H](Cc4c[nH]c5ccccc45)C(=O)N[C@@H](CCSC)C(=O)N[C@@H](Cc4c[nH]c5ccccc45)C(=O)N[C@@H]([C@@H](C)O)C(=O)N3)NC2=O)C(=O)N[C@@H](CCCCN)C(=O)N[C@@H](CC(C)C)C(=O)N[C@@H](Cc2c[nH]c3ccccc23)C(=O)N1)[C@@H](C)CC)C(N)=O [E17 Ala mutant],< 5.30

# Reference: PMC5933747 (PLoS ONE, 2018)
